Test system: Ewing sarcoma cells
Test: Panel of 5 pediatric cancer cell lines, selective cytotoxicity
Type: cell-based
Settings: 5 types of solid pediatric cancers

O=C1C[C@H](O)[C@@H]2c3c(ccc(O)c31)-c1ccc(O)c3c1[C@@]2(O)CCC3=O [Altertoxin I, altertoxin I]
selective cytotoxic activity against Ewing sarcoma cells: did not show selective cytotoxic activity
